target: (recombinant) catalytic domain of human Bub1 (amino acids 704-1085) (Homo sapiens (Human), UniProt O43683); assay: Bub1 kinase assay (TR-FRET); format: biochemical; settings: ATP 10 μM, peptide substrate 1 μM, 60 min at 22° C., read-out: Inhibition of Bub1 kinase IC50
Source text: Bub1-inhibitory activities of compounds described in the present invention were quantified using a time-resolved fluorescence energy transfer (TR-FRET) kinase assay which measures phosphorylation of the synthetic peptide Biotin-Ahx-VLLPKKSFAEPG (SEQ ID No. 1) (C-terminus in amide form), purchased from e.g. Biosyntan (Berlin, Germany) by the (recombinant) catalytic domain of human Bub1 (amino acids 704-1085), expressed in Hi5 insect cells with an N-terminal His6-tag and purified by affinity-(Ni-NTA) and size exclusion chromatography.
In a typical assay 11 different concentrations of each compound (0.1 nM, 0.33 nM, 1.1 nM, 3.8 nM, 13 nM, 44 nM, 0.15 μM, 0.51 μM, 1.7 μM, 5.9 μM and 20 μM) were tested in duplicate within the same microtiter plate. To this end, 100-fold concentrated compound solutions (in DMSO) were previously prepared by serial dilution (1:3.4) of 2 mM stocks in a clear low volume 384-well source microtiter plate (Greiner Bio-One, Frickenhausen, Germany), from which 50 nl of compounds were transferred into a black low volume test microtiter plate from the same supplier. Subsequently, 2 μL of Bub1 (the final concentration of Bub1 was adjusted depending on the activity of the enzyme lot in order to be within the linear dynamic range of the assay: typically ˜200 ng/mL were used) in aqueous assay buffer [50 mM Tris/HCl pH 7.5, 10 mM magnesium chloride (MgCl2), 200 mM potassium chloride (KCl), 1.0 mM dithiothreitol (DTT), 0.1 mM sodium ortho-vanadate, 1% (v/v) glycerol, 0.01% (w/v) bovine serum albumine (BSA), 0.005% (v/v) Trition X-100 (Sigma), 1× Complete EDTA-free protease inhibitor mixture (Roche)] were added to the compounds in the test plate and the mixture was incubated for 15 min at 22° C. to allow pre-equilibration of the putative enzyme-inhibitor complexes before the start of the kinase reaction, which was initiated by the addition of 3 μL 1.67-fold concentrated solution (in assay buffer) of adenosine-tri-phosphate (ATP, 10 μM final concentration) and peptide substrate (1 μM final concentration). The resulting mixture (5 μL final volume) was incubated at 22° C. during 60 min. and the reaction w as stopped by the addition of 5 μL of an aqueous EDTA-solution (50 mM EDTA, in 100 mM HEPES pH 7.5 and 0.2% (w/v) bovine serum albumin) which also contained the TR-FRET detection reagents (0.2 μM streptavidin-XL665 [Cisbio Bioassays, Codolet, France] and 1 nM anti-phosho-Serine antibody [Merck Millipore, cat. #35-002] and 0.4 nM LANCE EU-W1024 labeled anti-mouse IgG antibody [Perkin-Elmer, product no. AD0077, alternatively a Terbium-cryptate-labeled anti-mouse IgG antibody from Cisbio Bioassays can be used]). The stopped reaction mixture was further incubated 1 h at 22° C. in order to allow the formation of complexes between peptides and detection reagents. Subsequently, the amount of product was evaluated by measurement of the resonance energy transfer from the Eu-chelate-antibody complex recognizing the Phosphoserine residue to the streptavidin-XL665 bound to the biotin moiety of the peptide. To this end, the fluorescence emissions at 620 nm and 665 nm after excitation at 330-350 nm were measured in a TR-FRET plate reader, e.g. a Rubystar or Pherastar (both from BMG Labtechnologies, Offenburg, Germany) or a Viewlux (Perkin-Elmer) and the ratio of the emissions (665 nm/622 nm) was taken as indicator for the amount of phosphorylated substrate. The data were normalised using two sets of control wells for high−(=enzyme reaction without inhibitor=0%=Minimum inhibition) and low−(=all assay components without enzyme=100%=Maximum inhibition) Bub1 activity. IC50 values were calculated by fitting the normalized inhibition data to a 4-parameter logistic equation (Minimum, Maximum, IC50, Hill; Y=Max+(Min−Max)/(1+(X/IC50)Hill)).

Chain of (recombinant) catalytic domain of human Bub1 (amino acids 704-1085) (O43683 704-1085): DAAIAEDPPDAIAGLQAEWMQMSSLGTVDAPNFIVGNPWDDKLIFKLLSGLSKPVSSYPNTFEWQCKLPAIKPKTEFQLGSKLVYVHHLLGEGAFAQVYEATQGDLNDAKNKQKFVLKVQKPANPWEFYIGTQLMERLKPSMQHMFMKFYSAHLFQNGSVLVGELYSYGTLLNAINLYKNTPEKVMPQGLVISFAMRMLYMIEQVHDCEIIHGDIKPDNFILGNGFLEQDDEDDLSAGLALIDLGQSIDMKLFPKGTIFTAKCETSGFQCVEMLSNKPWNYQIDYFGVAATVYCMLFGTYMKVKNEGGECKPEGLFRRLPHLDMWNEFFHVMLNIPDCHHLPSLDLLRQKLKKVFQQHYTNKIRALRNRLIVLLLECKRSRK

IC50 | Compound
6 nM | C[C@@]12Cc3[nH]c(-c4ccncc4)c(Nc4ccccc4)c3C(=O)[C@@H]1C2 (relative stereo) [Example 16, rel-(4aR,5aR)-5a-Methyl-3-(phenylamino)-2-(pyridin-4-yl)-4a,5,5a,6-tetrahydrocyclopropa[f]indol-4(1H)-one]
19 nM | CN1C[C@H]2C(=O)c3c([nH]c(-c4ccncc4)c3Nc3ccccc3)C[C@H]2C1=O (relative stereo) [Example 11, rel-(4aR,7aS)-6-Methyl-3-(phenylamino)-2-(pyridin-4-yl)-1,4a,5,6,7a,8-hexahydropyrrolo[3,4-f]indole-4,7-dione]
12 nM | N-{4-[[(4aS,5aS) or (4aR,5aR)]-3-anilino-5a-methyl-4-oxo-1,4,4a,5,5a,6-hexahydrocyclopropa[f]indol-2-yl]pyridin-2-yl}-3-fluoro-4-methoxybenzamide [Example 51]
16 nM | (1S,2S)-2-Fluoro-N-4-[[(4aS,5aS) or (4aR,5aR)]-5a-methyl-4-oxo-3-(phenylamino)-1,4,4a,5,5a,6-hexahydrocyclopropa[f]indol-2-yl]pyridin-2-ylcyclopropanecarboxamide [Example 36]
1160 nM | CC1(C)[C@@H]2C[C@H]1C(=O)c1c2[nH]c(-c2ccnc(N)c2)c1Nc1ccccc1 (relative stereo) [Example 2, rel-(5R,7S)-2-(2-Aminopyridin-4-yl)-6,6-dimethyl-3-(phenylamino)-1,5,6,7-tetrahydro-4H-5,7-methanoindol-4-one]
17 nM | 1-Fluoro-N-4-[[(4aS,5aS) or (4aR,5aR)]-5a-methyl-4-oxo-3-(phenylamino)-1,4,4a,5,5a,6-hexahydrocyclopropa[f]indol-2-yl]pyridin-2-ylcyclopropanecarboxamide [Example 30]
630 nM | C[C@@]12Cc3[nH]c(-c4ccnc(NS(C)(=O)=O)c4)c(Nc4ccccc4)c3C(=O)[C@@H]1C2 (relative stereo) [Example 27, N-{4-[rel-(4aR,5aR)-3-Anilino-5a-methyl-4-oxo-1,4,4a,5,5a,6-hexahydrocyclopropa[f]indol-2-yl]pyridin-2-yl}methanesulfonamide]
63 nM | CC1(C)[C@@H]2C[C@H]1C(=O)c1c2[nH]c(-c2ccnc(NC(=O)C3CC3)c2)c1Nc1ccccc1 (relative stereo) [Example 6, N-4-[rel-(5R,7S)-6,6-Dimethyl-4-oxo-3-(phenylamino)-4,5,6,7-tetrahydro-1H-5,7-methanoindol-2-yl]pyridin-2-ylcyclopropanecarboxamide]
27 nM | N-4-[[(7S) or (7R)]-7-Methyl-4-oxo-3-(phenylamino)-1,4,5,6,7,8-hexahydrocyclohepta[b]pyrrol-2-yl]pyridin-2-ylacetamide [Example 38]
8 nM | O=c1ccccc2[nH]c(-c3ccncc3)c(Nc3ccccc3)c12 [Example 21, 3-(Phenylamino)-2-(pyridin-4-yl)cyclohepta[b]pyrrol-4(1H)-one]
36 nM | N-4-[(4aS,5aS or 4aR,5aR)-5a-Methyl-4-oxo-3-(phenylamino)-1,4,4a,5,5a,6-hexahydrocyclopropa[f]indol-2-yl]pyridin-2-ylacetamide [Example 20]
25 nM | CC1CCC(=O)c2c([nH]c(-c3ccnc(N)c3)c2Nc2ccccc2)C1 (racemic) [Example 24, (7RS)-2-(2-Aminopyridin-4-yl)-7-methyl-3-(phenylamino)-5,6,7,8-tetrahydrocyclohepta[b]pyrrol-4(1H)-one]
6 nM | (4aS,5aS or 4aR,5aR)-5a-Methyl-3-(phenylamino)-2-(pyridin-4-yl)-4a,5,5a,6-tetrahydrocyclopropa[f]indol-4(1H)-one [Example 18]
52 nM | 1-Fluoro-N-4-[[(4aR,5aR) or (4aS,5aS)]-5a-methyl-4-oxo-3-(phenylamino)-1,4,4a,5,5a,6-hexahydrocyclopropa[f]indol-2-yl]pyridin-2-ylcyclopropanecarboxamide [Example 31]
375 nM | CCNC(=O)Nc1cc(-c2[nH]c3c(c2Nc2ccccc2)C(=O)[C@@H]2C[C@H]3C2(C)C)ccn1 (relative stereo) [Example 8, 1-4-[rel-(5R,7S)-6,6-Dimethyl-4-oxo-3-(phenylamino)-4,5,6,7-tetrahydro-1H-5,7-methanoindol-2-yl]pyridin-2-yl-3-ethylurea]
7 nM | CC(=O)Nc1cc(-c2[nH]c3c(c2Nc2ccccc2)C(=O)CCC(C)C3)ccn1 (racemic) [Example 25, N-{4-[(7RS)-3-Anilino-7-methyl-4-oxo-1,4,5,6,7,8-hexahydrocyclohepta[b]pyrrol-2-yl]pyridin-2-yl}acetamide]
110 nM | CC1(C(=O)Nc2cc(-c3[nH]c4c(c3Nc3ccccc3)C(=O)[C@@H]3C[C@]3(C)C4=O)ccn2)CC1 (relative stereo) [Example 33, N-{4-[rel-(4aR,5aS)-3-Anilino-5a-methyl-4,6-dioxo-1,4,4a,5,5a,6-hexahydrocyclopropa[f]indol-2-yl]pyridin-2-yl}-1-methylcyclopropanecarboxamide]
133 nM | C[C@@]12C[C@@H]1C(=O)c1c([nH]c(-c3ccnc(NC(=O)C4(F)CC4)c3)c1Nc1ccccc1)C2=O (relative stereo) [Example 29, 1-Fluoro-N-4-[rel-(4aS,5aR)-5a-methyl-4,6-dioxo-3-(phenylamino)-1,4,4a,5,5a,6-hexahydrocyclopropa[f]indol-2-yl]pyridin-2-ylcyclopropanecarboxamide]
19 nM | (4aR,5aR or 4aS,5aS)-3-(Phenylamino)-2-(pyridin-4-yl)-4a,5,5a,6-tetrahydrocyclopropa[f]indol-4(1H)-one [Example 13]
2930 nM | (5S,7R or 5R,7S)-2-(2-Aminopyridin-4-yl)-6,6-dimethyl-3-(phenylamino)-1,5,6,7-tetrahydro-4H-5,7-methanoindol-4-one [Example 4]

Compound | IC50
2-Fluoro-2-methyl-N-4-[[(4aS,5aS) or (4aR,5aR)]-5a-methyl-4-oxo-3-(phenylamino)-1,4,4a,5,5a,6-hexahydrocyclopropa[f]indol-2-yl]pyridin-2-ylpropanamide [Example 40] | 22 nM

Reference: patent US10308629B2, “1H-pyrrol-3-amines” (BAYER PHARMA AKTIENGESELLSCHAFT, priority 2015, dated 2019)
